pIC50: −log10 of the molar value. Entries after “also recorded” stand apart in the source; their conditions may differ.
Experiments:
Kg-1a = assay: CT-Glo cytotoxicity assay, Kg-1a cells; format: cell-based; conditions: Homo sapiens, 72-h CT-Glo
Procedure: (§1) The molecules with the highest docking scores were assayed for IC50 values. Cultures were tested for cytotoxicity using the CellTiter-Glo assay (CT-Glo cytotoxicity assay; Promega, Madison, Wis.), a luminescence-based homogeneous method for determining the number of viable cells in culture based on quantitation of the ATP present, which signals the presence of metabolically active cells (Corsino, et al., A novel class of cyclin-dependent kinase inhibitors identified by molecular docking act through a unique mechanism. J Biol Chem 2009; 284: 29945-55; Homsi, et al., Src activation in melanoma and Src inhibitors as therapeutic agents in melanoma. Melanoma Res 2009; 19: 167-75). All cells were assayed at log-phase growth conditions. Luminescence was measured with a Synergy 4 microplate reader (Bio-Tek Instruments, Inc., Winooski, Vt.). IC50 values were determined using a sigmoidal equilibrium model regression using XLfit version 5.2 (ID Business Solutions Ltd., Surrey, UK) (Corsino, et al., A novel class of cyclin-dependent kinase inhibitors identified by molecular docking act through a unique mechanism. J Biol Chem 2009; 284: 29945-55).

WI-38 = assay: CT-Glo cytotoxicity assay, WI-38 cells; format: cell-based; conditions: Homo sapiens, 72-h CT-Glo
Procedure: as §1

NCI-H929 (H929) = assay: CT-Glo cytotoxicity assay, H929 cells; format: cell-based, human; conditions: Homo sapiens, NCI-H929, 72-h CT-Glo, average ± SD
Text: Compounds identified in Example 1 as the top scoring potential inhibitors for each of the two NES (20 each) were obtained from NCI and structures of these molecules confirmed using NMR and mass spectroscopy analysis, seen in FIGS. 4(A)-(C) and 5(A)-(D). The potential inhibitors were followed up using in vitro model cell cultures. MM cell lines NCI-H929 (H929) and RPMI-8226 (8226) were obtained from and tested for authenticity by the American Type Culture Collection (Manassas, Va.). All cell lines were grown as described previously (Turner, et al., Human topoisomerase IIalpha nuclear export is mediated by two CRM-1-dependent nuclear export signals. J Cell Sci 2004; 117: 3061-71).
as §1

PBMC = assay: CT-Glo cytotoxicity assay, PBMC; format: cell-based; conditions: 72-h CT-Glo, average ± SD
Procedure: as §1

CRM1-topo IIα complexes = target: T1, CRM1-topo IIα complexes (Homo sapiens, UniProt P11388); assay: Co-immunoprecipitation of CRM1 with topo IIα; format: cell-based
T1 construct: CRM1-topo IIα complexes were isolated from cells by immunoprecipitation; endogenous in cells
Procedure: Human myeloma cells were placed at plateau concentrations (4×10^6 cells/ml), and NES inhibitors were added at 25 μM for 20 hours. Cells were collected, washed in PBS, and fractionated by a method adapted from Li et al. (Li Y, Bor Y C, Misawa Y, Xue Y, Rekosh D, Hammarskjold M L. An intron with a constitutive transport element is retained in a Tap messenger RNA. Nature 2006; 443: 234-7). Separated fractions containing nuclei or precipitated cytosol were dissolved in 2% SDS buffer and assayed by SDS-PAGE Western blot analysis. Blots were probed with an anti-topo IIα Kis1 antibody (Millipore Corp.). Lead compounds were also tested to determine if nuclear export inhibition was specific to topo IIα protein. Cells grown at log-phase concentrations were also fractionated. […], CRM1-topo IIα complexes were isolated from cells by immunoprecipitation using a combination of both protein A and protein G magnetic beads according to the manufacturer's protocol (Miltenyi Biotec, Cologne, Germany). Co-immunoprecipitation was performed with 2 μg of anti-CRM1 antibody (Santa Cruz Biotechnology, Inc., Santa Cruz, Calif.). Immunoprecipitation samples were separated by SDS-PAGE, transferred to nitrocellulose membranes, and probed with anti-topo IIα Kis1 antibody (Millipore, Corp., Billerica, Mass.) and anti-mouse horseradish peroxidase secondary antibody.

topo IIα [1] = target: T2, topo IIα (Homo sapiens, UniProt P11388); assay: Nuclear-cytoplasmic fractionation and Western blot for topo IIα; format: cell-based; conditions: RPMI-H929 cells, 100 μM, 24 hours, relative to untreated controls
T2 construct: effect on the intracellular location of topo IIα in treated MM cells; endogenous in cells; host or cells: human multiple myeloma cells NCI-H929

[2] = test system: high-density MM cells (H929); assay: Cleaved caspase 3 apoptosis assay, sensitization to doxorubicin
p53 = p53 nuclear export in low-density myeloma cells (nuclear fraction Western blot); format: cell-based, human; conditions: H929 at low density (log growth), 25 μM, 20 hours
Procedure: FIG. 14 is a blot of lead compounds tested to determine if nuclear export inhibition was specific to topo IIα protein. p53 was cycled from the nucleus into the cytoplasm in MM cells cultured at log growth conditions. Cells grown at log-phase concentrations were treated with the lead NES inhibitors (25 μM) or a leptomycin control for 20 hours and chemically fractionated. Nuclei were assayed by SDS-PAGE Western blot analysis for p53 protein (anti-p53 (DO-1), Santa Cruz Biotech, Inc). […] Lamin A/C (anti-lamin A/C, BD Pharmingen) is shown as a loading control.
Cells grown at low concentrations were treated with the lead NES inhibitors (25 μM) or a leptomycin B (5 nM) control for 20 hours and chemically fractionated. Nuclei were assayed by SDS-PAGE Western blot analysis for p53 protein.

[3] = test system: cells modeling AML, breast cancer and fibroblastoma; assay: Combination of NCI-9138 with other drugs (FIG. 8); format: cell-based; conditions: 25 μM with doxorubicin 2 μM, bortezomib 10 nM, dexamethasone, lenalidomide, melphalan, topotecan 10 μM
FLOW = assay: CT-Glo cytotoxicity assay, FLOW cells; format: cell-based; conditions: 72-h CT-Glo, average ± SD
Procedure: as §1

topo IIα [4] = target: T2, topo IIα; assay: Immunofluorescence microscopy of intracellular location of topo IIα; format: cell-based; conditions: 25 μM NES inhibitor
Procedure: Slides were viewed with a fully automated, upright Zeiss Axio-ImagerZ.1 microscope (Carl Zeiss A G, Oberkochen, Germany). Briefly, the DAPI image was used as a mask to segment the nuclear region from the Alexa 594 image. The remaining portion of the Alexa 594 image represents the cytosol, and individual nucleus and cytosol images were analyzed.
H929 cells were mock treated with 0.1% DMSO in media or with 25 μM of NES inhibitor. The high density control cells, seen in FIG. 9(A) show high levels of topo II staining outside the nucleus, evidencing export of topo II from the nucleus.

SK-UT = assay: CT-Glo cytotoxicity assay, SK-UT cells; format: cell-based; conditions: 72-h CT-Glo, average ± SD
Procedure: as §1

MCF-7 = assay: CT-Glo cytotoxicity assay, MCF-7 cells; format: cell-based; conditions: Homo sapiens, MCF7, 72-h CT-Glo, average ± SD
Procedure: as §1

T2 sequence (P11388 whole entry): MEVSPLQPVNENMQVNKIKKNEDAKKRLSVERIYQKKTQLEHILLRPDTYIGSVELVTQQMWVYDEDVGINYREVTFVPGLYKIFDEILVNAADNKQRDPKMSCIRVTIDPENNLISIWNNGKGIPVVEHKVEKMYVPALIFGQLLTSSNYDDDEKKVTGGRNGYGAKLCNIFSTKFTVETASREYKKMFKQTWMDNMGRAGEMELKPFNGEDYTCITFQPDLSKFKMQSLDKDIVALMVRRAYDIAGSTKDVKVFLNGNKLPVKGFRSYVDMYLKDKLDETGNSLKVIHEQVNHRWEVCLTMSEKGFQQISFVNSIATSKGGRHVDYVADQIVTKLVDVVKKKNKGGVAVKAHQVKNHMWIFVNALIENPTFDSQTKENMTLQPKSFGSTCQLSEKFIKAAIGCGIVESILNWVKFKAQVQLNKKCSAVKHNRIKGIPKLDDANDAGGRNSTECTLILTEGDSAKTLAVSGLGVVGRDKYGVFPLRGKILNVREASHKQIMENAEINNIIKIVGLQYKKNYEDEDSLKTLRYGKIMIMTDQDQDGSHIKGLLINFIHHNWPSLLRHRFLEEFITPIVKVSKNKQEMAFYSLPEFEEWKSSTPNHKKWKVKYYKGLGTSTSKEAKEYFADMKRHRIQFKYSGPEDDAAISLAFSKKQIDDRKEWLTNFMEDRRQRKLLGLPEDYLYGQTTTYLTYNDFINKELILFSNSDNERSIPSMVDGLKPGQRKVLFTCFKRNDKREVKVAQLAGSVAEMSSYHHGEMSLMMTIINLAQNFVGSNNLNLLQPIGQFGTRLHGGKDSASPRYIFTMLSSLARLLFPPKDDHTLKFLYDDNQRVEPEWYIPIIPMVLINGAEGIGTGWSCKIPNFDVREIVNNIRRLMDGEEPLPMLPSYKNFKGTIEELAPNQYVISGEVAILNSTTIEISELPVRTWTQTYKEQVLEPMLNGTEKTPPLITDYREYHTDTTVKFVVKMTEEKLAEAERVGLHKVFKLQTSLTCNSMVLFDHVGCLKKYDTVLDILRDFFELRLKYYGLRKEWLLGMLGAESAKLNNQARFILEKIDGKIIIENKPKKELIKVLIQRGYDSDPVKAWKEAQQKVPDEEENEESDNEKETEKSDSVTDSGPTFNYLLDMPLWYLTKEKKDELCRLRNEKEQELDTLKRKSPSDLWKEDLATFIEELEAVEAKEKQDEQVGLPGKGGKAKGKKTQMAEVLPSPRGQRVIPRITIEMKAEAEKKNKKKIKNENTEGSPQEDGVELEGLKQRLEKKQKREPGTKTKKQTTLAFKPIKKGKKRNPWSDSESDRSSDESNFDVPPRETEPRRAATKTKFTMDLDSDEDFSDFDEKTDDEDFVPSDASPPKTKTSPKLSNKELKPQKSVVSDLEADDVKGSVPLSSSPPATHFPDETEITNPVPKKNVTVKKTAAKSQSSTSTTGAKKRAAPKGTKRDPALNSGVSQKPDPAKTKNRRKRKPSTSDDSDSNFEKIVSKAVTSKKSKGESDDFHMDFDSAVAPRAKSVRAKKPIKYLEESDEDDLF
T1 sequence (P11388 whole entry, one chain of several): as the sequence (P11388 whole entry) above

O=C1c2ccccc2C(=O)C1C(=O)C(c1ccccc1)c1ccccc1 [NCI-9138, 2-(diphenylacetyl)-1H-indene-1,3(2H)-dione]
pIC50 (Kg-1a): 4.67 | pIC50 (WI-38): 4.52 | pIC50 (NCI-H929 (H929)): 4.65 | pIC50 (PBMC): 4.49 | Co-immunoprecipitation of CRM1 with topo IIα (CRM1-topo IIα complexes; 50 μM for 20 hours (FIG. 12 legend)): blocked | Binding of topo IIα to CRM1 (co-immunoprecipitation) (CRM1-topo IIα complexes; MM cells, 25 μM for 20 hours): prevented from binding to CRM1 | Cytoplasmic level / nuclear localization of topo IIα, fractionation Western blot (topo IIα [1]): reduced cytoplasmic levels of topo IIα equivalent to that produced by the CRM-1 inhibitor ratjadone C | Sensitization of high-density MM cells to doxorubicin / synergism ([2]; 25 μM NES inhibitor, doxorubicin 2 μM): synergized with the topo II inhibitor doxorubicin | Fold-Increased sensitization to dox ([2]; dox/drug (dox 2 μM) divided by dox alone): 4.13 ± 1.83 fold | Nuclear export of p53 (p53): did not prevent export of p53 | Synergism of NCI-9138 in drug combinations [3]: Synergism was seen with doxorubicin; also recorded: synergized exclusively with the topo II inhibitor doxorubicin | pIC50 (FLOW): 4.50 | Nuclear export of topo IIα by immunofluorescence (topo IIα [4]; 20 hours, high-density (plateau) MM cells): overlapping staining of topo II with DAPI | Fold-increase nuclear topo IIα (topo IIα [4]; H929 cells, nucleus v cytoplasm fluorescence vs untreated high-density controls): 2.61 fold | pIC50 (SK-UT): 4.53 | pIC50 (MCF-7): 4.57

— patent US9616051B2, “Drug targets to overcome de novo drug-resistance in multiple myeloma” (H. Lee Moffitt Cancer Center and Research Institute, Inc., priority 2008, dated 2017)
